For 13 compounds, IC50 results are on record in patent US12371432B2, “Haloallylamine compounds and application thereof” (TransThera Sciences (Nanjing), Inc., priority 2019, dated 2025).

SMILES strings stand for the structures. Structures can show the parent of a compound that is named as a salt. Where only a bound is given, the exact number is not on record here.

One assay has as its target T1, rhVAP-1 (Homo sapiens, UniProt Q16853).
T1 construct: purchased PeproTech
T1 sequence (Q16853 27-763 limits assumed): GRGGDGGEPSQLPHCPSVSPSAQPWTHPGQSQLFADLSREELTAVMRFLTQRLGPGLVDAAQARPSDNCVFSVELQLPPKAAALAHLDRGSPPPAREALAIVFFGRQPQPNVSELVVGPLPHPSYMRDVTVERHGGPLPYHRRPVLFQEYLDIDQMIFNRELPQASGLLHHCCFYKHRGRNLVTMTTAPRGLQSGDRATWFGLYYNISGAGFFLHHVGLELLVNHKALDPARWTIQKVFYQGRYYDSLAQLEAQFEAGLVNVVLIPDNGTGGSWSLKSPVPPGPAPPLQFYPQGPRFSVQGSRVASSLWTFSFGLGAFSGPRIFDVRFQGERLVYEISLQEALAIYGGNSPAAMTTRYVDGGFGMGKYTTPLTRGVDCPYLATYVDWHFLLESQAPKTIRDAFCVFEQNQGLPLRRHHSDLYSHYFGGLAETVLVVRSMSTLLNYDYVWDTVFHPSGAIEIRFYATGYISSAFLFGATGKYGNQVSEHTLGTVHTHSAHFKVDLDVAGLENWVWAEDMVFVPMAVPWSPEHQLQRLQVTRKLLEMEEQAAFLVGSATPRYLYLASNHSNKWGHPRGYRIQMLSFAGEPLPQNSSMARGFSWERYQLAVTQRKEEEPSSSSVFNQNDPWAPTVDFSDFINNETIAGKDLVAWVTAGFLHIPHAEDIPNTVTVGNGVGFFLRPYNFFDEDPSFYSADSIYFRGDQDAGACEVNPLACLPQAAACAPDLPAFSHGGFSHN
Nature of the assay: Inhibitory activity against rhVAP-1 enzyme (Biological Example 2). The note with it: Table 2; benzylamine substrate, Amplex Red/HRP. The assay is classed as biochemical. The essentials: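 Enzyme was preincubated 30 min at 37 °C in PBS with a 10-point 3-fold compound dilution series. Benzylamine with Amplex Red/HRP was then added, and fluorescence (ex 580/em 620 nm) was read every 5 min for 30 min. Inhibition was taken from rates versus max wells, and IC50 from a variable-slope fit.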

Another assay concerns the target T2, MAO-B (Homo sapiens, UniProt P27338).
T2 construct: purchased Active Motif
T2 sequence (P27338 1-520): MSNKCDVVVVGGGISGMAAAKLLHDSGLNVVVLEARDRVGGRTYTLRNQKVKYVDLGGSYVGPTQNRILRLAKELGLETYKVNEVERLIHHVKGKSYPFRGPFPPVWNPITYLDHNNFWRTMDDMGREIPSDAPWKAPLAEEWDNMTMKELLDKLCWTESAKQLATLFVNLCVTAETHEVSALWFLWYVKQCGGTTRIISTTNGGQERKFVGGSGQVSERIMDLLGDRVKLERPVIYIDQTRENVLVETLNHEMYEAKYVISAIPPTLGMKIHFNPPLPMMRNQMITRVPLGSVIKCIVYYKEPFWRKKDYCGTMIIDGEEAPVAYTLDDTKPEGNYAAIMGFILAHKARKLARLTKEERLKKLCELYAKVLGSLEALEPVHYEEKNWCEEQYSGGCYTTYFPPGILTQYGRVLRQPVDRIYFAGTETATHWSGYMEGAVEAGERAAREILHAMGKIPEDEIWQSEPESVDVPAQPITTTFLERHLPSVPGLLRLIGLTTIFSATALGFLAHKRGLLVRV
Nature of the assay: Selectivity against MAO-B enzyme (MAO-Glo). The assay is classed as biochemical. Here is the method:
(1) Instrument, Consumable and Reagent
Microplate reader (Perkin Elmer, EnVision), 384-well plate (Perkin Elmer), centrifuge (Eppendorf), MAO-Glo™ (Promega), MAO-A (Active Motif) and MAO-B (Active Motif).
(2) Preparation of Concentration Gradient Compound Solutions
An appropriate amount of the compound to be tested was taken, dissolved in DMSO to 10 mM and then stored. The solution was then gradiently diluted 4-fold with DMSO, 6 concentration gradients in total.
(3) Preparation of Enzyme Solutions
MAO-A/B mother liquor was diluted with the experimental buffer for MAO-A/B to obtain enzyme solutions of 2× concentrations.
(4) Preparation of Substrate Mixtures of 2× Concentrations
The mother liquor of MAO-A/B substrate mixture was diluted with the experimental buffer for MAO-A/B to obtain substrate mixtures of 2× concentrations.
200 nL compound solutions or solvents of different concentrations and 10 μL MAO-A/B enzyme solutions of 2× concentrations were added into a 384-well plate, centrifuged at 1,000 rpm for 60 s, shaken to be mixed uniformly and then incubated at room temperature for 15 min. 10 μL substrate mixtures of 2× concentrations were then added into each well, and reaction was initiated. The 384-well plate was centrifuged at 1,000 rpm for 60 s, shaken for a uniform mixing and then incubated at room temperature for 60 min. 20 μL of test stop solution was added to stop reaction. Centrifugation was performed at 1,000 rpm for 60 s, and shaking was performed for uniform mixing. After 30 min of standing, the microplate reader was used to perform reading.
The inhibition rate was calculated according to the following formula: Inhibition rate (%)=(Signal_Max-Signal_sample)/(Signal_Max-Signal_min)×100 (6) Fitting of Dose-Response Curve
With the log value of concentration as the X axis and the percent inhibition rate as the Y axis, the log (inhibitor) vs. response-variable slope of analysis software GraphPad Prism 5 was used to fit a dose-response curve, thus obtaining the IC50 value of activity of each compound against the enzyme.

For orientation: IC50 means the concentration at which inhibition is half-maximal. A high value points to weaker potency in that assay. For `CCN1CCc2nn(C/C(=C/F)CN)cc2C1=O` [Compound A6 hydrochloride, (E)-2-(2-(aminomethyl)-3-fluoroallyl)-5-ethyl-2,5,6,7-tetrahydro-4H-pyrazolo[4,3-c]pyridin-4-one], the results for the IC50 on rhVAP-1 and at MAO-B were 23 nM and more than 100000 nM, respectively.
`Cc1c2c(cn1C/C(=C/F)CN)C(=O)N(C1CC1)CC2` [Compound A35 hydrochloride, (E)-2-(2-(aminomethyl)-3-fluoroallyl)-5-cyclopropyl-1-methyl-2,5,6,7-tetrahydro-4H-pyrrolo[3,4-c]pyridin-4-one]: the IC50 at rhVAP-1 is 24 nM; against MAO-B, 92700 nM.
Taken in the same sequence, the figures for `CCN1CCc2cn(C/C(=C/F)CN)cc2C1=O` [Compound A25, (E)-2-(2-(aminomethyl)-3-fluoroallyl)-5-ethyl-2,5,6,7-tetrahydro-4H-pyrrolo[3,4-c]pyridin-4-one] were 45 nM and more than 100000 nM.
`CC(C)(C)N1CCc2nn(C/C(=C/F)CN)cc2C1=O` [Compound A7 hydrochloride, (E)-2-(2-(aminomethyl)-3-fluoroallyl)-5-tert-butyl-2,5,6,7-tetrahydro-4H-pyrazolo[4,3-c]pyridin-4-one]: the IC50 was 46 nM against rhVAP-1 and more than 100000 nM against MAO-B.
Take `NC/C(=C\F)Cn1cc2c(=O)n(C3CC3)ccc2n1` [Compound A41, (E)-2-(2-(aminomethyl)-3-fluoroallyl)-5-cyclopropyl-2,5-dihydro-4H-pyrazolo[4,3-c]pyridin-4-one]: the results for the 50% inhibitory concentration (IC50) on rhVAP-1 and against MAO-B were 8 nM and more than 100000 nM, respectively.
For `CCn1ccc2nn(C/C(=C/F)CN)cc2c1=O` [Compound A28 hydrochloride, (E)-2-(2-(aminomethyl)-3-fluoroallyl)-5-ethyl-2,5-dihydro-4H-pyrazolo[4,3-c]pyridin-4-one], the IC50 is 33 nM at rhVAP-1 and more than 100000 nM against MAO-B.
Turning to `NC/C(=C\F)Cn1ncc2c1CCN(C1CC1)C2=O` [Compound A2 hydrochloride, (E)-1-(2-(aminomethyl)-3-fluoroallyl)-5-cyclopropyl-1,5,6,7-tetrahydro-4H-pyrazolo[4,3-c]pyridin-4-one], the IC50 against MAO-B is more than 100000 nM.
Turning to `NC/C(=C\F)Cn1c(Br)c2c(c1Br)C(=O)N(C1CC1)CC2` [Compound A33 hydrochloride, (E)-2-(2-(aminomethyl)-3-fluoroallyl)-1,3-dibromo-5-cyclopropyl-2,5,6,7-tetrahydro-4H-pyrrolo[3,4-c]pyridin-4-one], the half-maximal inhibitory concentration (IC50) at rhVAP-1 was 23 nM; against MAO-B it was more than 100000 nM.
Take `Cl.NC/C(=C\F)Cn1cc2c(c1Br)CCN(C1CC1)C2=O` [Compound A32 hydrochloride, (E)-2-(2-(aminomethyl)-3-fluoroallyl)-1-bromo-5-cyclopropyl-2,5,6,7-tetrahydro-4H-pyrrolo[3,4-c]pyridin-4-one]: the values for the IC50 against rhVAP-1 and at MAO-B were 15 nM and more than 100000 nM, respectively.
For the compound `CNC(=O)c1cnn(C/C(=C/F)CN)c1` [Compound B1, (E)-1-(2-(aminomethyl)-3-fluoroallyl)-N-methyl-1H-pyrazole-4-carboxamide], the results for the IC50 against rhVAP-1 and against MAO-B were 40 nM and more than 100000 nM, respectively.
The matching figures for `NC/C(=C\F)Cn1cc2c(c1)C(=O)N(C1CC1)CC2` [Compound A22, (E)-2-(2-(aminomethyl)-3-fluoroallyl)-5-cyclopropyl-2,5,6,7-tetrahydro-4H-pyrrolo[3,4-c]pyridin-4-one]: 44 nM and more than 100000 nM.
The matching figures for `CCn1ccc2c(cnn2C/C(=C/F)CN)c1=O` [Compound A29 hydrochloride, (E)-1-(2-(aminomethyl)-3-fluoroallyl)-5-ethyl-1,5-dihydro-4H-pyrazolo[4,3-c]pyridin-4-one]: 60 nM and more than 100000 nM.
For `Cl.NC/C(=C\F)Cn1cc2c(c1Cl)CCN(C1CC1)C2=O` [Compound A42 hydrochloride, (E)-2-(2-(aminomethyl)-3-fluoroallyl)-1-chloro-5-cyclopropyl-2,5,6,7-tetrahydro-4H-pyrrolo[3,4-c]pyridin-4-one], the IC50 is 17 nM on rhVAP-1 and more than 100000 nM against MAO-B.
